The values that follow come from patent US12103915B2, “TEAD inhibitors and methods of uses thereof” (Insilico Medicine IP Limited, priority 2022, dated 2024).

SMILES strings stand for the structures.

For orientation: IC50 means the concentration that gives 50% inhibition.

One test addresses TEAD1 (Homo sapiens, UniProt P28347). The test is described as follows: Thermal shift assay TEAD1. The format is binding. Here is the method:
(§1) Example B: Thermal Shift Assay
(§2) 1) Prepare a fresh dilution of Protein Thermal Shift™ Dye (Applied Biosystems, 1000×) to 8× by […].
(§3) 2) To ensure the same DMSO concentration, the compounds were diluted as follows: Prepare 10 mM stock solution of compounds;
(§4) The final DMSO concentration was 0.1%
(§5) 10 μM: Diluting stock solution to 100 μM by using PBS.
(§6) 1 μM: Diluting stock solution to 1 mM by using DMSO, then dilute to 10 μM by using PBS.
(§7) TEAD1: the stock concentration was 2.9 mg/ml; the final concentration was 0.2 mg/ml. TEAD2: the stock concentration was 1.8 mg/ml; the final concentration was 0.08 mg/ml.
(§8) 4) Place the appropriate reaction plate or tubes on ice, then prepare the protein melt reactions:
(§9) 5) Pipet each reaction up and down 10 times to mix well.
(§10) 6) Seal the plate with MicroAmp™ Optical Adhesive Film, spin it at 1000 rpm for 1 minute.
(§11) 7) Set up and run on the qPCR instrument.
(§12) Using thermal Shift™ Software v1.3 to analysis.

In a further test the target is TEAD2 (Homo sapiens, UniProt Q15562). Description: Thermal shift assay TEAD2. The format is binding. Here is the method:
as §1, §2, §3, §4, §5, §6, §7, §8, §9, §10, §11, §12

A further test has as its target TEAD3 (Homo sapiens, UniProt Q99594). Description: Thermal shift assay TEAD3. Format: binding. How it is done:
as §1, §2, §3, §4, §5, §6
TEAD3: the stock concentration was 2.4 mg/ml; the final concentration was 0.1 mg/ml.
as §8, §9, §10, §11, §12

Another test concerns the target TEAD4 (Homo sapiens, UniProt Q15561). Description: Thermal shift assay TEAD4. The format is binding. Here is the method: as §1, §2, §3, §4, §5, §6
TEAD4: the stock concentration was 2.3 mg/ml; the final concentration was 0.1 mg/ml.
as §8, §9, §10, §11, §12

For another test, the system named is NCI-H226 cells. Description: Cell growth assay (CellTiter-Glo). The format is cell-based, human. The note with it: Homo sapiens, NCI-H226, 168 h, 7 days treatment, CellTiter-Glo luminescence, read-out: H226 CTG IC50. How it is done: Example A: Cell Growth Assay
CellTiter-Glo reagent (CTG reagent, Promega, G7573).
[…] Also seeding an extra plate as Day 0 control measurement. The microplates were incubated at 37° C., 5% CO2 overnight.
Compounds were 3-fold serial diluted in DMSO and final top-concentration was […], 10 points. 0.3% DMSO as vehicle control. In addition, […] of CTG reagent was added into the extra plate and incubated at room temperature for 30 minutes and detected luminescence signals as Day 0 control by using EnVision (PerkinElmer, 2104 Mutilabel Reader).
Incubated other compounds treated plates at 37° C. for another 7 days and […] of CTG reagent was added into the plates and incubated at room temperature for 30 minutes and detected luminescence signals.
Day 0 luminescence signals were used as negative control or baseline. • Signalday0=average luminescence signals of Day 0 control cells. • Signalblank control=average luminescence signals of blank control. • SignalDMSO vehicle control=average luminescence signals of Day 7 DMSO vehicle control cells. • Signalcpds treatment=luminescence signals of Day 7 compounds treatment cells. Inhibition %=1−(Signalcpds treatment−Signalblank control)/(SignalDMSO vehicle control−Signalblank control)*100.
(Inhibitory concentration 50% (IC50) and maximum inhibition % were calculated using dose response curves.
On the technique in general: Cellular ATP, detected with luciferase, serves as a proxy for viable cell number.

Sequence of TEAD2 (Q15562 whole entry, species assumed): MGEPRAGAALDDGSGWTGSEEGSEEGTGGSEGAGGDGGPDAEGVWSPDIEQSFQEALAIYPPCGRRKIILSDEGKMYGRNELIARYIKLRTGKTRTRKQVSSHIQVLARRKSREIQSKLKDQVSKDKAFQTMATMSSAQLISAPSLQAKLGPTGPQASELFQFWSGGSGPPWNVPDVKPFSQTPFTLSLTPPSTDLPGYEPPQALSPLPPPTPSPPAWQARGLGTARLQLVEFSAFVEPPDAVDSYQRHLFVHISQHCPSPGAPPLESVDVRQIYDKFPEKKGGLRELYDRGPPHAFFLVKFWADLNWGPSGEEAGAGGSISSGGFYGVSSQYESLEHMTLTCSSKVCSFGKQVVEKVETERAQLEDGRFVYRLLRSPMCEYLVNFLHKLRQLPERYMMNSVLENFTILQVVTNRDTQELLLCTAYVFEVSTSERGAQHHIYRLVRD
Sequence of TEAD3 (Q99594 whole entry, species assumed): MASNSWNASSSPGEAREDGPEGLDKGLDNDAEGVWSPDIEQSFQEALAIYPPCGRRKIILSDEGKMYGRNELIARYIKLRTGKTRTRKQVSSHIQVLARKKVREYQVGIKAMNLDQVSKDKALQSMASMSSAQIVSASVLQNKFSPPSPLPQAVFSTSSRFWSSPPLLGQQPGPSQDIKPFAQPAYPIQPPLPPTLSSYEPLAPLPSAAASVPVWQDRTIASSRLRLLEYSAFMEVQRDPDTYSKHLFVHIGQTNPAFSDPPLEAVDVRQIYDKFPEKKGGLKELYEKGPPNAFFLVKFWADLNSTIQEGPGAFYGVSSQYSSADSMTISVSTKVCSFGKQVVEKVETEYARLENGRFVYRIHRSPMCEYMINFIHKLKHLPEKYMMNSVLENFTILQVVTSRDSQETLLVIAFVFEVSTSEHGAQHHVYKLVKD
Sequence of TEAD1 (P28347 whole entry, species assumed): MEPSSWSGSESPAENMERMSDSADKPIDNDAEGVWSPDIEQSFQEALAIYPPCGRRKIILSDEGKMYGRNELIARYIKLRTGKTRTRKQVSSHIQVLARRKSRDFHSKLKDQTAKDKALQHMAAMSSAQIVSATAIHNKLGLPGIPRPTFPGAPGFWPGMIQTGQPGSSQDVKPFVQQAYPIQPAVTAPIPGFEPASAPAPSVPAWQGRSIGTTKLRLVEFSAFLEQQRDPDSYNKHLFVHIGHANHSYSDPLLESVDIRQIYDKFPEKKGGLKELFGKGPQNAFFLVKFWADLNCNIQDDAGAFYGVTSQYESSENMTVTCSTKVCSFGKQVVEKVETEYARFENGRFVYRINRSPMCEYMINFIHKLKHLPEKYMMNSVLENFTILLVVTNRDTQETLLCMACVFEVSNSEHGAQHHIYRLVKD
Sequence of TEAD4 (Q15561 whole entry, species assumed): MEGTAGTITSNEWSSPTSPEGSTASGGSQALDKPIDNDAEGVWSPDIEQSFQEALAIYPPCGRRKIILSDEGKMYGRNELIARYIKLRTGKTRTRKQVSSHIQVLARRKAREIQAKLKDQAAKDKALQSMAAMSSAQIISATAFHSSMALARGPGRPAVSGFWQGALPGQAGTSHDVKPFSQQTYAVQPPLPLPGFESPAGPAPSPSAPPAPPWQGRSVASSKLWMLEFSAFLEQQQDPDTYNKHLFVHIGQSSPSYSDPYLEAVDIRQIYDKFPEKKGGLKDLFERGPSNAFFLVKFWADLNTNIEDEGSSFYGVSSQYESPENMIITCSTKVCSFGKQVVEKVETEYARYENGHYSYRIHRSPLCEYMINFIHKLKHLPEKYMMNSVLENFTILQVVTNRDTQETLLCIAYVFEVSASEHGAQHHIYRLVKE

Turning to `Cn1cc2cc(Oc3ccc(C(F)(F)F)cc3)cc(C3C[C@H]3C(=O)N3CC4(CC(O)C4)C3)c2n1` (single isomer, unassigned) [Example 97], on TEAD1, the “TEAD1 ΔTm” value came out at 9.9 °C. Further, the “TEAD2 ΔTm” value at TEAD2 came out at 9.0 °C. For the same compound, the “TEAD3 ΔTm” value at TEAD3 was 7.6 °C. Also, at TEAD4, the “TEAD4 ΔTm” value was determined as 10.2 °C. In addition, in the test with NCI-H226 cells, the IC50 is less than 100 nM.
In the case of `Cn1cc2cc(Oc3ccc(C(F)(F)F)cc3)cc(C3C[C@H]3C(=O)N3C[C@@H]4C[C@H]3C[C@H]4O)c2n1` (single isomer, unassigned) [Example 103d], the “TEAD1 ΔTm” value at TEAD1 amounted to 9.5 °C. Also, the “TEAD2 ΔTm” value on TEAD2 turned out to be 11.6 °C. The “TEAD3 ΔTm” value at TEAD3 is 10.3 °C. In addition, the “TEAD4 ΔTm” value at TEAD4 is 11.2 °C. In addition, the IC50 in the test with NCI-H226 cells was less than 100 nM.
`Cn1cc2cc(Oc3ccc(C(F)(F)F)cc3)cc(C3C[C@H]3C(=O)N3CCC[C@H]3C#N)c2n1` (single isomer, unassigned) [Example 73]: the “TEAD1 ΔTm” value on TEAD1 amounted to 9.5 °C. Further, the “TEAD2 ΔTm” value at TEAD2 came to 15.1 °C. Moreover, the “TEAD3 ΔTm” value on TEAD3 was found to be 13.9 °C. On TEAD4, the “TEAD4 ΔTm” value came out at 12.1 °C. Also, the IC50 in the test on NCI-H226 cells is less than 100 nM.
The matching figures for `C[C@@H](C#N)NC(=O)[C@@H]1C[C@H]1c1cc(Oc2ccc(C(F)(F)F)cc2)cc2cn(C)nc12` (single isomer, unassigned) [Example 69]: 10.9 °C, 13.9 °C, 11.6 °C, 12.9 °C and less than 100 nM.
Take `Cn1cc2cc(Oc3ccc(C(F)(F)F)cc3)cc([C@@H]3C[C@H]3C(=O)N3CC[C@@H](O)[C@H](O)C3)c2n1` (single isomer, unassigned) [Example 75b]: the “TEAD1 ΔTm” value on TEAD1 came out at 9.3 °C. Besides, on TEAD2, the “TEAD2 ΔTm” value came to 11.9 °C. Besides, the “TEAD3 ΔTm” value at TEAD3 was 10.1 °C. On TEAD4, the “TEAD4 ΔTm” value was found to be 11.6 °C. Further, in the test with NCI-H226 cells, the IC50 is less than 100 nM.
The matching figures for `Cn1cc2cc(Oc3ccc(C(F)(F)F)cc3)cc([C@H]3C[C@@H]3C(=O)N3CC4CC3CC4O)c2n1` (single isomer, unassigned) [Example 103b]: 9.2 °C, 12.0 °C, 10.4 °C, 11.8 °C and less than 100 nM.
In the case of `Cn1cc2cc(Oc3ccc(C(F)(F)F)cc3)cc(C3C[C@H]3C(=O)N3[C@@H]4CC[C@H]3C[C@@H](O)C4)c2n1` (single isomer, unassigned) [Example 104], the “TEAD1 ΔTm” value on TEAD1 came to 6.5 °C. Further, the “TEAD2 ΔTm” value on TEAD2 was found to be 9.0 °C. Further, the “TEAD3 ΔTm” value at TEAD3 came to 2.0 °C. In addition, the “TEAD4 ΔTm” value on TEAD4 is 8.1 °C. Further, the half-inhibitory concentration (IC50) in the test with NCI-H226 cells is less than 100 nM.
On the same counts, the results for `Cn1cc2cc(Oc3ccc(C(F)(F)F)cc3)cc(C3C[C@H]3C(=O)N3[C@@H]4CC[C@H]3C[C@H](O)C4)c2n1` (single isomer, unassigned) [Example 105] are 6.8 °C, 8.2 °C, 2.2 °C, 8.1 °C and less than 100 nM.
With `Cn1cc2cc(Oc3ccc(C(F)(F)F)cc3)cc(C3C[C@H]3C(=O)N3CCC(O)CC3)c2n1` (single isomer, unassigned) [Example 74], at TEAD1, the “TEAD1 ΔTm” value was 10.7 °C. Besides, the “TEAD2 ΔTm” value on TEAD2 was determined as 12.9 °C. On TEAD3, the “TEAD3 ΔTm” value amounted to 11.4 °C. Further, the “TEAD4 ΔTm” value on TEAD4 was determined as 10.2 °C. In the test with NCI-H226 cells, the IC50 is less than 100 nM.
With `Cn1cc2cc(Oc3ccc(C(F)(F)F)cc3)cc([C@@H]3C[C@H]3C(=O)NC3(C#N)CC3)c2n1` (single isomer, unassigned) [Example 67], at TEAD1, the “TEAD1 ΔTm” value is 8.8 °C. For the same compound, at TEAD2, the “TEAD2 ΔTm” value was 9.9 °C. In addition, at TEAD3, the “TEAD3 ΔTm” value worked out at 1.7 °C. Moreover, the “TEAD4 ΔTm” value at TEAD4 was found to be 7.9 °C. Also, the IC50 in the test with NCI-H226 cells is less than 100 nM.
The matching figures for `CC(NC(=O)[C@@H]1CC1c1cc(Oc2ccc(C(F)(F)F)cc2)cc2cn(C)nc12)c1ccccn1` (mixture of isomers) [Example 57]: 7.6 °C, 9.4 °C, 12.4 °C, 14 °C and 100 to 500 nM.
For `Cn1ncc2c(C3C[C@H]3C(=O)O)cc(-c3ccc(OC(F)(F)F)cc3)cc21` (mixture of isomers) [Example 10], the “TEAD1 ΔTm” value on TEAD1 turned out to be 6 °C. In addition, the “TEAD2 ΔTm” value on TEAD2 amounted to 7.7 °C. Moreover, the “TEAD3 ΔTm” value at TEAD3 amounted to 2 °C. In addition, the “TEAD4 ΔTm” value on TEAD4 was 7.3 °C. In addition, the concentration for half-maximal inhibition (IC50) with NCI-H226 cells was in the range of 100 to 500 nM.
Turning to `Cn1cc2cc(Oc3ccc(C(F)(F)F)cc3)cc(C3C[C@H]3C(=O)N3C4COCC3C4)c2n1` (single isomer, unassigned) [Example 96], the “TEAD1 ΔTm” value on TEAD1 amounted to 10.5 °C. At TEAD2, the “TEAD2 ΔTm” value stood at 13.1 °C. The “TEAD3 ΔTm” value on TEAD3 was 12.3 °C. The “TEAD4 ΔTm” value on TEAD4 amounted to 12.6 °C. In the test on NCI-H226 cells, the IC50 is less than 100 nM.
With `O=C(O)[C@@H]1CC1c1cc(-c2ccc(C(F)(F)F)cc2)cc2cccnc12` (mixture of isomers) [Example 13], the “TEAD1 ΔTm” value on TEAD1 came out at 7.7 °C. Also, at TEAD2, the “TEAD2 ΔTm” value came out at 6.6 °C. The “TEAD3 ΔTm” value on TEAD3 is 1.8 °C. Besides, the “TEAD4 ΔTm” value at TEAD4 turned out to be 8.3 °C. The concentration for half-maximal inhibition (IC50) with NCI-H226 cells was less than 100 nM.
`CNC(=O)[C@@H]1CC1c1cc(Oc2ccc(C(F)(F)F)cc2)cc2cccnc12` (mixture of isomers) [Example 80]: the “TEAD1 ΔTm” value on TEAD1 came to 6.0 °C. Besides, the “TEAD2 ΔTm” value on TEAD2 is 10.5 °C. Moreover, on TEAD3, the “TEAD3 ΔTm” value amounted to 5.1 °C. Moreover, the “TEAD4 ΔTm” value on TEAD4 amounted to 6.2 °C. Besides, the IC50 in the test on NCI-H226 cells fell in the range of 100 to 500 nM.
The matching figures for `Cn1ncc2c(C3C[C@H]3C(N)=O)cc(-c3ccc(C(F)(F)F)cc3)cc21` (mixture of isomers) [Example 25]: 5.4 °C, 6.9 °C, 0.7 °C, 6.6 °C and less than 100 nM.
The matching figures for `CNC(=O)[C@@H]1CC1c1cc(OC2CC3(C2)CC(F)(F)C3)cc2cn(C)nc12` (mixture of isomers) [Example 94]: 3.3 °C, 6.5 °C, 0.7 °C, 2.6 °C and 100 to 500 nM.
As to `Cn1cc2cc(Oc3ccc(C(F)(F)F)cc3)cc(C3C[C@H]3C(=O)NC34CC(O)(C3)C4)c2n1` (single isomer, unassigned) [Example 102], at TEAD1, the “TEAD1 ΔTm” value amounted to 7.3 °C. Moreover, on TEAD2, the “TEAD2 ΔTm” value amounted to 9.1 °C. The “TEAD3 ΔTm” value at TEAD3 is 2.1 °C. Also, the “TEAD4 ΔTm” value on TEAD4 is 8.7 °C. Further, the IC50 in the test with NCI-H226 cells was less than 100 nM.
Turning to `CNC(=O)[C@@H]1CC1c1cc(-c2ccc(C(F)(F)F)cc2)cc2c1=NC(C)N=2` (mixture of isomers) [Example 22], the “TEAD1 ΔTm” value on TEAD1 turned out to be 4.5 °C. For the same compound, the “TEAD2 ΔTm” value at TEAD2 worked out at 5.5 °C. At TEAD3, the “TEAD3 ΔTm” value is 1.1 °C. In addition, the “TEAD4 ΔTm” value on TEAD4 came to 5.7 °C. Besides, the IC50 with NCI-H226 cells is less than 100 nM.
Consider `[2H]C([2H])([2H])NC(=O)[C@H]1CC1c1cc(Oc2ccc(C(F)(F)F)cc2)cc2cn(C)nc12` (single isomer, unassigned) [Example 53], for which, on TEAD1, the “TEAD1 ΔTm” value came out at 9.2 °C. For the same compound, the “TEAD2 ΔTm” value on TEAD2 came to 13.7 °C. Moreover, on TEAD3, the “TEAD3 ΔTm” value was 9.8 °C. Further, the “TEAD4 ΔTm” value at TEAD4 was found to be 10.5 °C. The IC50 with NCI-H226 cells is less than 100 nM.
